US20220002411A1, “METHODS FOR TREATING IMMUNE RELATED OCULAR DISORDERS” (LEGEND MEDICAL-RIMONCI VISION TECHNOLOGY INCUBATION LIMITED, priority 2019, published 2022)

Test system: glaucoma mice (high intraocular pressure, C57BL/6J)
Test: Glaucoma mouse model induced by intraocular injection of polystyrene microparticles (RGC and axon damage)
Assay type: in vivo, C57BL/6J mice
Details: 2 μl once a week at 0.2 μg/ml intravitreal; observed after 8 weeks; compared to IgG injected mice / controls
Procedure: Glaucoma mouse model. Two glaucoma mice models were used in the following experiments. In the first model, high intraocular pressure was induced in adult C57BL/6J mice by injecting polystyrene microparticles. First, mice were anesthetized by intraperitoneal injection of a mixture of ketamine (120 mg/kg) and xylazine (12 mg/kg). Then, a small puncture in the center of the right cornea of the mouse was incised with a 30 G needle (BD, USA). Then, 3 to […] of polystyrene particles of 15 μm diameter (Invitrogen, Oregon, USA) were injected at a 5×10^6/ml concentration into the right anterior chamber of the eye by a glass micro-injector. Left eyes were used as controls, by injecting […] of PBS into the left anterior chamber in a similar manner
Treatment with immune checkpoint inhibitors. […]
Pathologic assessments. After mice were sacrificed, optic nerve and retinal patches were taken to assess optic nerve damage. The optic nerve was fixed overnight with Karnovsky solution. Transverse sections of the optic nerve were obtained 2 mm after the eyeball and observed by electron microscopy (EM410, Philips). For retinal patches the eyeball was fixed with 4% paraformaldehyde overnight. Retinal patches and frozen sections were taken. Retinal ganglion cells (RGCs) were labeled with beta 3 tubulin (Invitrogen) and recorded using a confocal laser microscope (Olympus FV1000). […]

Nc1ncnc2c1ncn2[C@@H]1O[C@H](CO)[C@@H](O)[C@H]1O [adenosine]
RGCs loss (beta 3 tubulin staining): decreased RGCs loss
